In US20110046170A1, “NOVEL PYRIMIDINE-PYRIDINE DERIVATIVES” (priority 2008, published 2011) one finds EC50 and Lymphocyte counts data, which are given here for 35 molecules.

One experiment deals with human S1P1 receptor (Homo sapiens, UniProt P21453). The experiment in a line: GTPγS assay to determine EC50 values. Format: biochemical. As to conditions: 35S-GTPγS binding, membrane preparations of CHO cells expressing recombinant human S1P1 receptor. On the procedure:
GTPγS Assay to Determine EC50 Values
GTPγS binding assays are performed in 96 well microtiter plates (Nunc, 442587) in a final volume of 200 μl, using membrane preparations of CHO cells expressing recombinant human S1P1 receptor. Assay conditions are 20 mM Hepes (Fluka, 54461), 100 mM NaCl (Fluka, 71378), 5 mM MgCl2 (Fluka, 63064), 0.1% BSA (Calbiochem, 126609), 1 μM GDP (Sigma, G-7127), 2.5% DMSO (Fluka, 41644), 50 pM ^35S-GTPγS (Amersham Biosciences, SJ1320). The pH is 7.4. Test compounds are dissolved and diluted in 100% DMSO and pre-incubated at rt for 30 min in 150 μl of the above assay buffer, in the absence of ^35S-GTPγS. After addition of 50 μl of ^35S-GTPγS, the assay is incubated for 1 h at rt. The assay is terminated by transfer of the reaction mixture to a Multiscreen plate (Millipore, MAHFC1H60) using a cell harvester from Packard Biosciences, and the plates are washed with ice-cold 10 mM Na2HPO4/NaH2PO4 (70%/30%), dried, sealed at the bottom and, after addition of 25 μl MicroScint20 (Packard Biosciences, order# 6013621), sealed on the top. Membrane-bound ^35S-GTPγS is measured with a TopCount from Packard Biosciences.
EC50 is the concentration of agonist inducing 50% of the maximal specific ^35S-GTPγS binding. Specific binding is determined by subtracting non-specific binding from maximal binding. Maximal binding is the amount of cpm bound to the Multiscreen plate in the presence of 10 μM of S1P. Non-specific binding is the amount of binding in the absence of an agonist in the assay.

The next experiment relates to circulating lymphocytes. As to the kind of experiment: Assessment of in vivo efficacy: circulating lymphocytes after oral administration. The following applies: 6 h after oral administration of 10 mg/kg to normotensive male Wistar rats, compared to vehicle-treated group; mean ± SEM. On the procedure: Assessment of In Vivo Efficacy
The efficacy of the compounds of formula (I) is assessed by measuring the circulating lymphocytes after oral administration of 3 to 30 mg/kg of a compound of formula (I) to normotensive male Wistar rats. The animals are housed in climate-controlled conditions with a 12 h-light/dark cycle, and have free access to normal rat chow and drinking water. Blood is collected before and 3, 6 and 24 h after drug administration. Full blood is subjected to hematology using Advia Hematology system (Bayer Diagnostics, Zurich, Switzerland).
All data are presented as mean±SEM. Statistical analyses are performed by analysis of variance (ANOVA) using Statistica (StatSoft) and the Student-Newman-Keuls procedure for multiple comparisons. The null hypothesis is rejected when p<0.05.

Sequence of human S1P1 receptor (P21453 whole entry): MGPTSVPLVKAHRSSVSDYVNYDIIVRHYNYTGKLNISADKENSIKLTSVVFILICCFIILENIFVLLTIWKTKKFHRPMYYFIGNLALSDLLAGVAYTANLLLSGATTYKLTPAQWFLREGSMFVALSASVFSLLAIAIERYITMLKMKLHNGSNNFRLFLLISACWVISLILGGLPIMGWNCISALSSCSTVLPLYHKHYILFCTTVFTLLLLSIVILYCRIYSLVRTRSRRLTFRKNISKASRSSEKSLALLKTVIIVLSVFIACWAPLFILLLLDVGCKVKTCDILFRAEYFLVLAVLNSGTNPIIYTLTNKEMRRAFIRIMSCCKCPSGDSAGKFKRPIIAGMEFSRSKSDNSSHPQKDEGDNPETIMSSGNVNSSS

For `Cc1cc(CC(C)C)nc(-c2nc(-c3cc(C)nc(N(C)CC(C)C)n3)no2)c1` [Example 247], the EC50 (usually the concentration needed to bring the measured effect to its halfway point) on human S1P1 receptor is > 10000 nM.

In the case of `Cc1cc(-c2noc(-c3cc(C)nc(NC(C)C)n3)n2)cc(N(C)C)n1` [Example 25], the concentration for a half-maximal effect (EC50) on human S1P1 receptor (agonistic activity) is 46 nM.

Consider `CCCNc1nc(C)cc(-c2nc(-c3ccnc(C)c3)no2)n1` [Example 101], for which the 50% effective concentration (EC50) at human S1P1 receptor (agonistic activity) turned out to be 11 nM.

As to `CCc1cc(-c2nc(-c3cc(C)nc(N(C)CC(C)C)n3)no2)cnc1N(C)C(C)C` [Example 229], on human S1P1 receptor, the EC50 is > 10000 nM.

As for `CCCNc1nc(C)cc(-c2noc(-c3cc(C)nc(Cl)c3)n2)n1` [Example 185], the EC50 at human S1P1 receptor (agonistic activity) amounted to 22 nM.

On to `CNc1nc(C)cc(-c2noc(-c3cc(C)nc(N(C)C)c3)n2)n1` [Example 188], for which the EC50 at human S1P1 receptor (agonistic activity) turned out to be 560 nM.

Turning to `Cc1cc(CC(C)C)nc(-c2nc(-c3cc(C)nc(OCC(C)C)n3)no2)c1` [Example 255], the EC50 on human S1P1 receptor was > 10000 nM.

For `CCNc1nc(CC)cc(-c2nc(-c3cc(C)nc(C)c3)no2)n1` [Example 79, {4-[3-(2,6-Dimethyl-pyridin-4-yl)-[1,2,4]oxadiazol-5-yl]-6-ethyl-pyrimidin-2-yl}-ethyl-amine], on human S1P1 receptor (agonistic activity), the half-maximal effective concentration (EC50) came to 1.2 nM. Also, the Lymphocyte counts in the experiment on circulating lymphocytes is on record as −70 ± 2%.

`Cc1cc(-c2nc(-c3cc(C)nc(OCC(C)C)n3)no2)cc(N(C)C)n1` [Example 205]: the EC50 on human S1P1 receptor (agonistic activity) came out at 3040 nM.

For the molecule `Cc1cc(-c2noc(-c3cc(C)nc(OC(C)C)n3)n2)cc(C)n1` [Example 132], the EC50 on human S1P1 receptor (agonistic activity) amounted to 44 nM.

In the case of `Cc1cc(CC(C)C)nc(-c2nc(-c3cc(C)nc(N(C)C(C)C)n3)no2)c1` [Example 246], the concentration for a half-maximal effect (EC50) on human S1P1 receptor is > 10000 nM.

Take `CCN(c1nc(C)cc(-c2noc(-c3ccnc(C)c3)n2)n1)C(C)C` [Example 166]: the EC50 at human S1P1 receptor (agonistic activity) was 2150 nM.

As to `Cc1cc(-c2nc(-c3cc(C)nc(NCC(C)C)n3)no2)cc(Cl)n1` [Example 187], the EC50 on human S1P1 receptor (agonistic activity) was found to be 31 nM.

`CCN(CC)c1nc(C)cc(-c2noc(-c3cc(C)nc(C)c3)n2)n1` [Example 177]: the EC50 on human S1P1 receptor (agonistic activity) is 11 nM.

With `CCCOc1nc(C)cc(-c2noc(-c3cc(C)nc(C)c3)n2)n1` [Example 182], on human S1P1 receptor (agonistic activity), the EC50 came to 395 nM.

On to `Cc1cc(-c2nc(-c3ccc(C)c(C)n3)no2)nc(NC(C)C)n1` [Example 155], for which the EC50 on human S1P1 receptor (agonistic activity) is 20 nM.

As for `CCc1cc(-c2noc(-c3cc(C)nc(OCC(C)C)n3)n2)cc(C)n1` [Example 135], on human S1P1 receptor (agonistic activity), the EC50 amounted to 142 nM.

Consider `CCCN(CC)c1nc(C)cc(-c2noc(-c3cc(C)cc(CC(C)C)n3)n2)n1` [Example 249], for which the EC50 at human S1P1 receptor is > 10000 nM.

For the molecule `Cc1cc(-c2noc(-c3cc(C)nc(NCC(C)C)n3)n2)cc(C)n1` [Example 27], the half-maximal effective concentration (EC50) on human S1P1 receptor (agonistic activity) was determined as 8 nM.

As to `CCNc1nc(C)cc(-c2nc(-c3cc(C)nc(CC)c3)no2)n1` [Example 9], the concentration giving a half-maximal response (EC50) at human S1P1 receptor (agonistic activity) was 21 nM.

For `CCCOc1nc(C)cc(-c2nc(-c3cc(C)nc(N(C)CC)c3)no2)n1` [Example 78], the EC50 on human S1P1 receptor was > 10000 nM.

`CNc1nc(C)cc(-c2noc(-c3cc(C)nc(CC(C)C)c3)n2)n1` [Example 81]: the EC50 at human S1P1 receptor (agonistic activity) is 30 nM.

In the case of `Cc1cc(-c2noc(-c3cc(CC(C)C)nc(NC(C)C)n3)n2)cc(C)n1` [Example 142], the 50% effective concentration (EC50) on human S1P1 receptor (agonistic activity) came to 26 nM.

For the molecule `CCN(c1nc(C)cc(-c2noc(-c3cc(C)nc(N(C)C)c3)n2)n1)C(C)C` [Example 200], at human S1P1 receptor (agonistic activity), the EC50 amounted to 94 nM.

Take `CCc1cc(-c2nc(-c3cc(C)nc(OCC(C)C)n3)no2)cnc1N(C)C(C)C` [Example 237]: on human S1P1 receptor, the half-maximal effective concentration (EC50) was > 10000 nM.

Regarding `CCc1cnc(-c2noc(-c3cc(C)nc(NC(C)C)n3)n2)cc1C` [Example 159], at human S1P1 receptor (agonistic activity), the EC50 came out at 53 nM.

Take `COc1nc(C)cc(-c2noc(-c3cc(C)nc(N(C)C)c3)n2)n1` [Example 201]: the concentration giving a half-maximal response (EC50) on human S1P1 receptor (agonistic activity) is 1140 nM.

Turning to `CCCN(CC)c1nc(C)cc(-c2noc(-c3cnc(CC(C)C)c(C)c3)n2)n1` [Example 211], the 50% effective concentration (EC50) at human S1P1 receptor (agonistic activity) was found to be 795 nM.

For the molecule `CCN(CC)c1nc(C)cc(-c2noc(-c3cc(C)cc(CC(C)C)n3)n2)n1` [Example 248], at human S1P1 receptor, the EC50 is > 10000 nM.

On to `CCOc1nc(C)cc(-c2nc(-c3cc(C)nc(N(C)C)c3)no2)n1` [Example 70], for which, on human S1P1 receptor, the EC50 was > 10000 nM.

Take `Cc1cc(CC(C)C)nc(-c2nc(-c3cc(C)nc(NC(C)C)n3)no2)c1` [Example 241]: the concentration for a half-maximal effect (EC50) on human S1P1 receptor was > 10000 nM.

Consider `COc1nc(C)cc(-c2noc(-c3cc(C)nc(C)c3)n2)n1` [Example 180], for which, on human S1P1 receptor, the half-maximal effective concentration (EC50) is > 10000 nM.

`CCCNc1nc(C)cc(-c2nnc(-c3cc(C)nc(C)c3)s2)n1` [Example 261]: the half-maximal effective concentration (EC50) on human S1P1 receptor (agonistic activity) came out at 331 nM.

For `CCCN(CC)c1nc(C)cc(-c2noc(-c3cnc(N(C)C(C)C)c(CC)c3)n2)n1` [Example 231], on human S1P1 receptor, the EC50 was > 10000 nM.

In the case of `Cc1cc(-c2noc(-c3cc(C)nc(NC(C)C)n3)n2)cc(C)n1` [Example 21], the EC50 on human S1P1 receptor (agonistic activity) amounted to 1.6 nM. Moreover, the Lymphocyte counts in the experiment on circulating lymphocytes is listed as −71 ± 2%.
